In assay [1] the target is T1, muscle-type nicotinic acetylcholine receptor (nAChR) (Torpedo marmorata, UniProt P02711+Q6S3H8+Q6S3H9+Q6S3I0).
T1 construct: gene CHRNA1; purified native nAChR reconstituted in asolectin lipids, microtransplanted to Xenopus oocytes; with β1, γ and δ nAChR subunits (heteropentamer 2α1, β1, δ, γ)
Nature of the assay: two-electrode voltage clamp in Xenopus oocytes, agonist concentration-response. The assay is classed as cell-based.

The target in assay [2] is T1, muscle-type nicotinic acetylcholine receptor (nAChR). Nature of the assay: two-electrode voltage clamp in Xenopus oocytes, inhibition of […] ACh-elicited currents (peak; steady-state IC50 […]). The assay is classed as cell-based.

T1 sequence (P02711 25-461): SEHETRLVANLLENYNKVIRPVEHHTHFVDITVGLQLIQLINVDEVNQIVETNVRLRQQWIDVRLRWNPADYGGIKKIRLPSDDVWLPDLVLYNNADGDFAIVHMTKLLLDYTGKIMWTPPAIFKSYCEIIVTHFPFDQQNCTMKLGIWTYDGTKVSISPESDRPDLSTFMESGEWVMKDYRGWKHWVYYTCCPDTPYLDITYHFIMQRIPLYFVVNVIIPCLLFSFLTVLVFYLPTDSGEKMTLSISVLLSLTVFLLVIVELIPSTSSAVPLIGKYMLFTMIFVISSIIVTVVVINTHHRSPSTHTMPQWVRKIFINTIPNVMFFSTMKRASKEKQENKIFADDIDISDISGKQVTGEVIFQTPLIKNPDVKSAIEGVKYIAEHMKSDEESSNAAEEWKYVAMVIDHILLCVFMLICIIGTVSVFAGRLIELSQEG
T1 sequence (Q6S3I0 25-493): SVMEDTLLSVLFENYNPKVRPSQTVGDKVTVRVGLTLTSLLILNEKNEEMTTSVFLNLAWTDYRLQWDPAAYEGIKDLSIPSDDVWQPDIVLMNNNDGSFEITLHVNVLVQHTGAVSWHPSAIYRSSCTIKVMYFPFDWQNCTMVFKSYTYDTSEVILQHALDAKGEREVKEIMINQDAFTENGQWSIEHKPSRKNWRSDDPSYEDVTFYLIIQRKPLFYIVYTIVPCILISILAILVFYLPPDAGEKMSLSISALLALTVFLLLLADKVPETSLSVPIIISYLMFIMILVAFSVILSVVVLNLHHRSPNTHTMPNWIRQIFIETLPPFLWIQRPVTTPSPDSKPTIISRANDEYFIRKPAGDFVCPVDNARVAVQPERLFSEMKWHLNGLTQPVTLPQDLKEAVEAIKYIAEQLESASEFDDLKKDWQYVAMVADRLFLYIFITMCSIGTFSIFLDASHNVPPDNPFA
T1 sequence (Q6S3H9 18-505): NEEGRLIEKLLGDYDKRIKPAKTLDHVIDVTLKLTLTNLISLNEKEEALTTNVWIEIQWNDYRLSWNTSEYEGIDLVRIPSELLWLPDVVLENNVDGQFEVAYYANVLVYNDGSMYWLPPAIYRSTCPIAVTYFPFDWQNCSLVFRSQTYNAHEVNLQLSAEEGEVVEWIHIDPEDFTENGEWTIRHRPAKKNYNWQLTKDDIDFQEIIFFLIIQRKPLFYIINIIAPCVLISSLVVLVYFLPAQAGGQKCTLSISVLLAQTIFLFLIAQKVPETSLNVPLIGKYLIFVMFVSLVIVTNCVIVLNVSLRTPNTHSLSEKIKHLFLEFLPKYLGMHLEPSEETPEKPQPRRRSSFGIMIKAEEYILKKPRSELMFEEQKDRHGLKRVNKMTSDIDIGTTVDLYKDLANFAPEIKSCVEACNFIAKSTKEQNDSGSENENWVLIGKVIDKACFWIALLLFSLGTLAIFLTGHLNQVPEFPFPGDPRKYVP
T1 sequence (Q6S3H8 22-522): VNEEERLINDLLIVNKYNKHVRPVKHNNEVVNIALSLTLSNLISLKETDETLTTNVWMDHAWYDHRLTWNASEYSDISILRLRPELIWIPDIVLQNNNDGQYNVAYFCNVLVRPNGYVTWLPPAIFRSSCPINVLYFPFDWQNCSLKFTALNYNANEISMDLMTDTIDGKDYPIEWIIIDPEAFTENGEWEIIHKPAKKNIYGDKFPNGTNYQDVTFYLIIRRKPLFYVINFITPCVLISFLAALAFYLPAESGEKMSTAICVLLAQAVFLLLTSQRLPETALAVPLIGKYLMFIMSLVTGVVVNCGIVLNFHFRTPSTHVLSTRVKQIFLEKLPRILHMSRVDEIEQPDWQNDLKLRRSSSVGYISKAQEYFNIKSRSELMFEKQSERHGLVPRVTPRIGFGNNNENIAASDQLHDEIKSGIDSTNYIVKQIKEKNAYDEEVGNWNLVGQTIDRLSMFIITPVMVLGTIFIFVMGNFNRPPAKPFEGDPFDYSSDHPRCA

As for `CC(=O)OCC[N+](C)(C)C` [ACh, acetylcholine], in assay [1], a half-maximal effect (EC50) was put at 31 µM.

For the molecule `C[C@H]1CC[C@@H]2N(C1)C[C@H]1[C@@H]3C[C@H]4[C@@H](C[C@H](O)[C@H]5C[C@@H](O)CC[C@@]54C)[C@@H]3CC[C@@H]1[C@]2(C)O` [Pm, Peimine], in assay [2], inhibition was half-maximal at 2.9 µM (IC50). In other words, the single-digit micromolar range.

(Values after article PMC8539251, “Peimine, an Anti-Inflammatory Compound from Chinese Herbal Extracts, Modulates Muscle-Type Nicotinic Receptors” (International Journal of Molecular Sciences, 2021).)
